SMILES strings stand for the structures. Where two headings read alike, the source gives them in different places.

Data on 9 compounds can be found in EP0558245A1, “Heterobicyclic compounds as antagogists of alpha-1 adrenergic and SHT1A receptors” (priority 1992, dated 1993).

The target of one data set is α₁ receptors. Briefly: [3H]prazosin binding (α1 receptors), rat cerebral cortex membranes. The following applies: rat cerebral cortex crude membranes, [3H]prazosin 0.35 nM, 25°C 30 min; read-out: Receptor Binding IC50 (nM) α1.
The target in a further data set is T1, 5HT1A receptors (Rattus norvegicus, UniProt P19327).
T1 construct: Rat hippocampi were homogenized; from tissue; host or cells: rat hippocampus membranes
T1 sequence (P19327 1-422): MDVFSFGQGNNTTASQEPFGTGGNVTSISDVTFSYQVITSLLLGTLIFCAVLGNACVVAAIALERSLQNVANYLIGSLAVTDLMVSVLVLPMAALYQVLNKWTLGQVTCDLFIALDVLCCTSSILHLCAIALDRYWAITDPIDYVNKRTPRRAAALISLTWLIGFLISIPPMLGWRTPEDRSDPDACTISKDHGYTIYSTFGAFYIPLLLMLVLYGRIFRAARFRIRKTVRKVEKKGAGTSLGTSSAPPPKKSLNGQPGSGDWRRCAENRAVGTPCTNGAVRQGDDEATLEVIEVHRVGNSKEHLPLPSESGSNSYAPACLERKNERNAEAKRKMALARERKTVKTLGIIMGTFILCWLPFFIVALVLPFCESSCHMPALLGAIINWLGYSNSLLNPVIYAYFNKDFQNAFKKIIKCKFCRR
Briefly: [3H]8-OH-DPAT binding (5HT1A receptors), rat hippocampus membranes. The following applies: rat hippocampus crude membranes, [3H]8-OH-DPAT 1.0 nM, 25°C 30 min; read-out: Receptor Binding IC50 (nM) 5-HT1a.

A short description of data set [1]: Acute toxicity in mice after intraperitoneal and oral administration. The following applies: mouse, in vivo, female albino Swiss mice, mortality recorded 7 days after administration. On the procedure:
Male Sprague Dawley rats [Crl: CD' BR] of 200-300 g b.w., female Albino Swiss mice [Crl: CD-1 (ICR) BR] 20-30 g b.w., and male Beagle dogs (10-12 kg b.w.) were obtained from Charles River, Italy and Nossan (Correzzana, Milan, Italy), respectively. Animals were housed with free access to food and water and maintained on forced light-dark cycle at 22-24°C until the day of experiments.
The acute toxicity of synthesized compounds was evaluated in female albino Swiss mice after intraperitoneal and oral administration. Four logarithmic scaled doses of the compounds were dissolved or suspended in 0.5% Methocel and administered in a volume of 10 ml/kg to groups of 4 mice/dose. Mortality was recorded 7 days after the administration. Data analysis: the LD₅₀ values and their fiducial limits were calculated according to the method of Weil (Biometrics, 8, 249, 1952).

Setting [2] is: ip, intraperitoneal, read-out: Acute Toxicity in Mice LD50 (mg/kg) i.p.
The mark [3] stands for this setting: oral, read-out: Acute Toxicity in Mice LD50 (mg/kg) p.o.

Experimental for 5HT1A receptors: Rat hippocampi were homogenized in 50 volumes of original wet weight of ice-cold 50 mM Tris-HCl buffer pH 7.4. The homogenates were centrifuged at 48,000 x g for 10 minutes, and the pellets were resuspended in the same volume of ice-cold buffer, incubated for 10 minutes at 37°C, centrifuged and resuspended two more times. The final pellets obtained were resuspended in the same volume of buffer and incubated according to the conditions reported in the table below.
(§1) The incubations were terminated after the appropriate time (see table) by rapid filtration through Whatman GF/B filters using a Brandel cell harvester. The filters were washed twice with 15 ml of ice-cold buffer (see table). The radioactivity retained on the filters was determined by liquid scintillation counting. Nonspecific binding (which amounted generally to 10-30%) was evaluated by adding high concentrations of the specific displacers (see table). All the compounds were initially tested at 1x10⁻⁶ M concentration, and in the presence of significant displacing activity, a complete competition curve was generated (down to a concentration of 10⁻¹¹ M). All the samples were run in triplicate.
The competition curves were always analyzed (to evaluate the IC₅₀ values) by non linear curve fitting of the logistic equation according to the method reported by De Lean et al. (Am. J. Physiol., 235, E97, 1978), utilizing the ALLFIT program [publically available from the National Institutes of Health (N.I.H.) Bethesda, Maryland, USA] written for the IBM PC.
Experimental for α₁ receptors: Rat cerebral cortices were homogenized in 50 volumes of original wet weight of ice-cold 50 mM Tris-HCl buffer pH 7.4. The homogenates were centrifuged at 48,000 x g for 10 minutes, and the pellets were resuspended in the same volume of ice-cold buffer, centrifuged and resuspended two more times. The final pellets obtained were resuspended in the same volume of buffer and incubated according to the conditions reported in the table below.
as §1

Regarding `COc1ccccc1N1CCN(CCC(=O)N(C)c2cccc3c(=O)c(C)c(-c4ccccc4)oc23)CC1.CS(=O)(=O)O` [Example 63, 8-{N-methyl-3-[4-(2-methoxyphenyl)-1-piperazinyl]-propionamido}-3-methyl-4-oxo-2-phenyl-4H-1-benzopyran methanesulphonate], the IC50 (in general, the concentration that gives 50% inhibition) is 194 nM on α₁ receptors and 99 nM at 5HT1A receptors. Moreover, the LD50 at 168 h was 309 mg/kg in data set [1] (setting [2]) and 479 mg/kg in data set [1] (setting [3]).

In the case of `COc1ccccc1N1CCN(CCC(=O)c2cccc3c(=O)c(C)c(-c4ccccc4)oc23)CC1.Cl` [Example 4, 8-{3-[4-(2-methoxyphenyl)-1-piperazinyl]-1-oxopropyl}-3-methyl-4-oxo-2-phenyl-4H-1-benzopyran hydrochloride], the IC50 at α₁ receptors turned out to be 550 nM; on 5HT1A receptors, 55 nM. Also, the LD50 at 168 h came out at 346 mg/kg in data set [1] (setting [2]) and 1730 mg/kg in data set [1] (setting [3]).

For the compound `COc1ccccc1N1CCN(CCN(Cc2cccc3c(=O)c(C)c(-c4ccccc4)oc23)C(C)=O)CC1.Cl` [Example 24, 8-{N-acetyl-2-[4-(2-methoxyphenyl)-1-piperazinyl]-ethylaminomethyl}-3-methyl-4-oxo-2-phenyl-4H-1-benzopyran hydrochloride], the values for the IC50 on α₁ receptors and on 5HT1A receptors were 690 nM and 212 nM, respectively. In addition, the LD50 at 168 h in data set [1] (setting [2]) is more than 1000 mg/kg; in data set [1] (setting [3]), more than 3000 mg/kg.

For `COc1ccccc1N1CCN(CCCCNS(=O)(=O)c2cccc3c(=O)c(C)c(-c4ccccc4)oc23)CC1.CS(=O)(=O)O.CS(=O)(=O)O` [Example 67, 8-{4-[4-(2-methoxyphenyl)-1-piperazinyl]-butylsulphamoyl}-3-methyl-4-oxo-2-phenyl-4H-1-benzopyran dimethanesulphonate], the IC50 at α₁ receptors and at 5HT1A receptors was 4 nM each time. Besides, the LD50 at 168 h in data set [1] (setting [2]) worked out at 508 mg/kg; in data set [1] (setting [3]) it was 1870 mg/kg.

With `CS(=O)(=O)O.Cc1c(-c2ccccc2)oc2c(C(=O)NCCCN3CCC(c4ccccc4)CC3)cccc2c1=O` [Example 54, 8-[3-(4-phenyl-1-piperidinyl)-propylcarbamoyl]-3-methyl-4-oxo-2-phenyl-4H-1-benzopyran methansulphonate], the values for the IC50 at α₁ receptors and on 5HT1A receptors were 35 nM and 143 nM, respectively. Moreover, the figures for the LD50 at 168 h in data set [1] (setting [2]) and in data set [1] (setting [3]) were 106 mg/kg and 421 mg/kg, respectively.

As to `Cc1c(-c2ccccc2)oc2c(C(=O)NCCCN3CCC(n4c(=O)[nH]c5ccccc54)CC3)cccc2c1=O` [Example 57, 8-{3-[4-(2-oxo-1-benzimidazolinyl)-1-piperidinyl]-propylcarbamoyl-}-3-methyl-4-oxo-2-phenyl-4H-1-benzopyran], the half-maximal inhibitory concentration (IC50) is 69 nM on α₁ receptors and more than 1000 nM at 5HT1A receptors. Moreover, the LD50 at 168 h is 500 mg/kg in data set [1] (setting [2]) and more than 2000 mg/kg in data set [1] (setting [3]).

Consider `Cc1ccccc1N1CCN(CC(O)c2cccc3c(=O)c(C)c(-c4ccccc4)oc23)CC1.Cl` (centres unmarked) [Example 18, 8-{1-hydroxy-2-[4-(2-methylphenyl)-1-piperazinyl]-ethyl}-3-methyl-4-oxo-2-phenyl-4H-1-benzopyran hydrochloride], for which the values for the IC50 on α₁ receptors and on 5HT1A receptors were 270 nM and more than 1000 nM, respectively. Moreover, the LD50 at 168 h in data set [1] (setting [2]) turned out to be 457 mg/kg; in data set [1] (setting [3]), 3000 mg/kg.

`COc1ccccc1N1CCN(CCCNC(=O)c2cc([N+](=O)[O-])cc3c(=O)c(C)c(-c4ccccc4)oc23)CC1` [Example 93, 8-{3-[4-(2-methoxyphenyl)-1-piperazinyl]-propylcarbamoyl}-3-methyl-6-nitro-4-oxo-2-phenyl-4H-1-benzopyran]: the IC50 at α₁ receptors worked out at 47 nM; on 5HT1A receptors it was 38 nM.

`COc1ccccc1N1CCN(CCCC(=O)c2cccc3c(=O)c(C)c(-c4ccccc4)oc23)CC1.CS(=O)(=O)O` [methanesulphonate]: the IC50 on α₁ receptors was found to be 22 nM; on 5HT1A receptors it was 84 nM.
